For orientation: LD50 means the dose at which mortality reaches 50%.

Results on two compounds are retold here after patent US4959368A, “Therapeutic agent for neurological diseases” (Mitsui Petrochemical Industries Ltd., priority 1986, dated 1990).

For data set [1], the system named is human neuroblastoma cell line GOTO. The data set can be described thus: Activity on neuroblastoma cell line GOTO (cell number, number and length of neurites). In kind it is cell-based. The settings on record: for Number of cells: control 3.17. Put shortly:
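GOTO cells were cultured 1–2 days at 37 °C, 5% CO2, then switched to serum-free RPMI/MEM (1:1) with compounds in PBS at various concentrations for 24 h. Living cells were counted by erythrosine exclusion (3–6 dishes); neurite number and length per cell were measured from photographs.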

Data set [2] relates to mouse neuroblastoma cell line neuro-2a. The experiment in a line: Activity on cell line neuro-2a (simple method). It counts as cell-based. The settings on record: Table 2 neuro-2a Run No. 1, control 7.9. As to the method:
The biological activities in vitro of the compounds of formula (I) on cells of the nervous system were tested. The cells tested were human neuroblastoma cell line GOTO [see Sekiguchi, M., Oota, T., Sakakibara, K., Inui, N. & Fujii, G., Japan. J. Exp. Med., 49, 67-83 (1979)], and neuroblastoma cell line NB-1 [see Miyake, S., Shimo, Y., Kitamura, T., Nojyo, Y., Nakamura, T., Imkashuku, S. and Abe, T., The Autonomic Nervous System, 10, 115-120 (1973)], and mouse neuroblastoma cell line neuro-2a (Dainippon Pharmaceutical Co., Ltd.) which have been established as the cells of the nervous system. The above neuve cells were grown in an incubator at 37° C. in the presence of 5% carbon dioxide gas exponentially, and then cultivated for a certain period of time together with the compounds of formula (I). […]
(§1) As a simple method of evaluation, the number of cells have neurites with a length equal to, or larger than, the long diameter of the cell was divided by the total number of cells.

The nature of another data set: Acute toxicity, mouse. In kind it is in vivo. The settings on record: in vivo, po, Table 6, p.o., read-out: Presumed LD50. As to the method:
(§2) The acute toxicity of the compounds of the invention was examined by the following method.
(§3) Male ddy-strain 5-week old mice and male Wistar-strain 8 week old rats, five per group, were used as experimental animals. Each of the compounds was dissolved in saline and administered perorally, and the toxicity of the compound was assessed 24 hours after the administration.

The next data set deals with mice. The data set can be described thus: Acute toxicity, mouse. It counts as in vivo. The conditions noted are these: 24 hours. As for the experimental part:
as §2, §3

In data set [3] the test system is human neuroblastoma cell line GOTO. The experiment in a line: Activity on cell line GOTO (simple method). In kind it is cell-based. The conditions noted are these: Table 2 GOTO Run No. 2; 10 μg/ml; control 8.4. As to the method:
The biological activities in vitro of the compounds of formula (I) on cells of the nervous system were tested. The cells tested were human neuroblastoma cell line GOTO [see Sekiguchi, M., Oota, T., Sakakibara, K., Inui, N. & Fujii, G., Japan. J. Exp. Med., 49, 67-83 (1979)], and neuroblastoma cell line NB-1 [see Miyake, S., Shimo, Y., Kitamura, T., Nojyo, Y., Nakamura, T., Imkashuku, S. and Abe, T., The Autonomic Nervous System, 10, 115-120 (1973)], and mouse neuroblastoma cell line neuro-2a (Dainippon Pharmaceutical Co., Ltd.) which have been established as the cells of the nervous system. The above neuve cells were grown in an incubator at 37° C. in the presence of 5% carbon dioxide gas exponentially, and then cultivated for a certain period of time together with the compounds of formula (I).
A culture medium [composed of 45% of RPMI 1640 medium, 45% modified Eagle's medium (MEM) and 10% of fetal calf serum (FCS) and containing penicillin G sodium (100 units/ml) and streptomycin sulfate (100 microgram/ml)] containing neurobalstoma cell line GOTO in the logarithmic growth period was poured in an amount of 2 ml each into polystyrene dishes (35 mm; made by Corning Co.) so that the cell concentration was 2 to 6×10^4 cells per dish, and the cells were cultured for 1 to 2 days in a carbon dioxide gas incubator containing 5% of carbon dioxide gas in air at 37° C. Then, the culture fluid was removed, and 2 ml of a fresh serum-free culture fluid (consisting of 50% of RPMI medium and 50% of MEM medium and containing penicillin G sodium and streptomycin sulfate in the same amounts as above) was added. At the same time, a presterilized PBS solution (phosphate buffered saline) of each of the test compounds in various concentrations was added to each of the dishes. After culturing for 24 hours, the number of living cells was counted. Furthermore, the culture was photographed, and from the photos, the number and length of neurites per cell were measured. The numer of living cells was counted for 3 to 6 dishes by resistance to staining with erythrosine dye. The number and length of the neurites were measured with regard to 6 photos (more than 200 cells per photo).
as §1

The nature of the next data set: Acute toxicity, rat. It counts as in vivo. The conditions noted are these: in vivo, po, Table 6, p.o., read-out: Presumed LD50. As for the experimental part: as §2, §3
For a further data set, the system named is rats. The data set can be described thus: Acute toxicity, rat. It counts as in vivo. The settings on record: 24 hours. As for the experimental part: as §2, §3
Setting [4] is: Table 1 Run No. 3, 1 μg/ml, control 1.94 ± 0.69, all *P <0.01.
Setting [5] is: Table 1 Run No. 3, 1 μg/ml, control 45.13 ± 22.71, all *P <0.01.

`CCn1ccc2nc(N3CCNCC3)ncc2c1=O` [Compound 710]: the “Number of neurites/cell (mean ± S.D.)” value in data set [1] (Table 1 Run No. 1, 10 μg/ml, control 2.09 ± 0.61) is given as 2.12 ± 0.51 neurites/cell; in data set [1] (Table 1 Run No. 1, 100 μg/ml, control 2.09 ± 0.61), 1.71 ± 0.59 neurites/cell; in data set [1] (Table 1 Run No. 2, 1 μg/ml, control 2.06 ± 0.60), 2.14 ± 0.63 neurites/cell; in data set [1] (Table 1 Run No. 2, 10 μg/ml, control 2.06 ± 0.60), 2.09 ± 0.62 neurites/cell; in data set [1] (setting [4]) it was 2.17 ± 0.79 neurites/cell. For the same compound, the “Number of cells (mean ± S.E.)” value in data set [1] (Table 1 Run No. 1, 10 μg/ml, control 14.34 ± 0.72) is reported as 19.18 ± 0.67 × 10^4 /dish; in data set [1] (Table 1 Run No. 1, 100 μg/ml, control 14.34 ± 0.72) it was 11.92 ± 0.66 × 10^4 /dish; in data set [1] (Table 1 Run No. 2, 1 μg/ml, control 12.30 ± 1.48), 17.44 ± 1.50 × 10^4 /dish; in data set [1] (Table 1 Run No. 2, 10 μg/ml, control 12.30 ± 1.48), 15.15 ± 2.26 × 10^4 /dish. The “Length of neurites (mean ± S.D.)” value was determined as 86.10 ± 50.70 μm/cell in data set [1] (Table 1 Run No. 1, 10 μg/ml, control 70.10 ± 43.03); 47.34 ± 35.11 μm/cell in data set [1] (Table 1 Run No. 1, 100 μg/ml, control 70.10 ± 43.03); 73.74 ± 43.49 μm/cell in data set [1] (Table 1 Run No. 2, 1 μg/ml, control 55.00 ± 37.26); 62.74 ± 35.64 μm/cell in data set [1] (Table 1 Run No. 2, 10 μg/ml, control 55.00 ± 37.26); 60.93 ± 23.66 μm/cell in data set [1] (setting [5]). Moreover, the Number of cells is reported as 3.66 × 10^4 /dish in data set [1] (Table 1 Run No. 3, 0.0 μg/ml (so in the source)) and 3.92 × 10^4 /dish in data set [1] (Table 1 Run No. 3, 1 μg/ml). The “Average of the proportions” value came out at 15.97% in data set [2] (1 μg/ml), 13.70% in data set [2] (10 μg/ml) and 15.02% in data set [3]. Also, the LD50 at 24 h lay within 300 to 550 mg/kg in the data set “Acute toxicity, mouse” and 550 to 1000 mg/kg in the data set “Acute toxicity, rat”. The “Number of dead animals/number of test animals” value was 0/5 with mice (Table 6, 300 mg/kg p.o.); 3/5 in the data set with mice (Table 6, 500 mg/kg p.o.); 5/5 with mice (Table 6, 1000 mg/kg p.o.); 1/5 with rats (Table 6, 300 mg/kg p.o.); 2/5 in the data set on rats (Table 6, 500 mg/kg p.o.); 5/5 with rats (Table 6, 1000 mg/kg p.o.).
For the compound `Cn1ccc2nc(N3CCNCC3)ncc2c1=O` [Compound 706], the “Number of neurites/cell (mean ± S.D.)” value in data set [1] (Table 1 Run No. 3, 0.1 μg/ml, control 1.94 ± 0.69, *P <0.01) turned out to be 2.30 ± 0.75 neurites/cell; in data set [1] (setting [4]), 2.26 ± 0.82 neurites/cell. For the same compound, the Number of cells in data set [1] (Table 1 Run No. 3, 0.1 μg/ml) was 3.81 × 10^4 /dish; in data set [1] (Table 1 Run No. 3, 1 μg/ml), 4.12 × 10^4 /dish. The “Length of neurites (mean ± S.D.)” value in data set [1] (Table 1 Run No. 3, 0.1 μg/ml, control 45.13 ± 22.71, *P <0.01) is listed as 72.11 ± 26.58 μm/cell; in data set [1] (setting [5]), 63.24 ± 28.17 μm/cell. Moreover, the “Average of the proportions” value in data set [2] (1 μg/ml) is recorded as 17.21%; in data set [2] (10 μg/ml), 15.40%; in data set [3] it was 16.39%. Further, the LD50 at 24 h in “Acute toxicity, mouse” was in the range of 550 to 1000 mg/kg; in “Acute toxicity, rat” it was 550 to 1000 mg/kg. Further, the “Number of dead animals/number of test animals” value with mice (Table 6, 300 mg/kg p.o.) was 0/5; with mice (Table 6, 500 mg/kg p.o.) it was 2/5; in the data set with mice (Table 6, 1000 mg/kg p.o.), 4/5; with rats (Table 6, 300 mg/kg p.o.), 0/5; in the data set on rats (Table 6, 500 mg/kg p.o.), 1/5; in the data set on rats (Table 6, 1000 mg/kg p.o.), 3/5.
